Compound | melting point [°C]
Cn1c(=O)ccn(C2C=CC(CO)O2)c1=O (stereo not drawn) | 203 to 204
CC1(C)OC(=S)Nc2ccc(-c3cc(F)cc(F)c3)cc21 | 224 to 225
CN1CCN(CC(=O)NC2(c3ccc(Cl)cc3)C(=O)Nc3cc(Cl)cc(Cl)c32)CC1 (stereo not drawn) | 248 to 251
N#Cc1ccc(Cn2c3cc(O)c(O)cc3c3c(Br)cc(O)c(O)c32)cc1 | > 260
C#CCOC(C(=O)Nc1ccccc1-c1ccc(O)c(OC)c1)c1ccc(Cl)cc1 (stereo not drawn) | 140 to 142
CCC(C(=O)OC1C=CC=CO1)C(=O)OC1C=CC=CO1 (stereo not drawn) | 90 to 92
COc1ccc2[nH]nc(N3CCNCC3)c2c1 | 163 to 169
OC(COc1ccccc1)CN1CCN(c2nc3nccc(-c4ccncc4)n3n2)CC1 (stereo not drawn) | 143 to 145
CC(=O)N[C@@H]1CCCC[C@H]1OCC(=O)O (relative stereo) | 141 to 143
COC(=N)Nc1nc(Cl)cc(OC)n1 | 118 to 120
CN1CCN(c2cc3nc(C(C)(C)C)sc3cc2N=C=S)CC1 | 124 to 126
CCOC(=O)C1N=C(c2ccccc2)c2ccccc2NC1=O (stereo not drawn) | 226
NS(=O)(=O)c1ccc(NC(=O)Nc2ccc(Br)cc2)cc1 | 269 to 271
CSc1nc(=O)n(C)cc1F | 154
COc1cc2c(cc1OC)/C(=C/c1cc(OC)c(OC)c(OC)c1)N(C(=O)C1CCCCC1)CC2 | 162 to 164
Oc1ccc(-c2n[nH]c3c2Cc2ccccc2-3)cc1 | 266 to 268
Cc1ccc(-n2cc(-c3cccn4nc(Nc5ccc(C6CCN(C(=O)OC(C)(C)C)CC6)cc5)nc34)cn2)cc1 | 124 to 125
Cc1ccc(C)n1N(C)c1ccc(Cl)nn1 | 93 to 94.5
CN1CCN(c2ccccc2-c2ccc(C#N)c(=O)[nH]2)CC1 | 202 to 203
COc1ccnc(CSc2nc3c(OC(F)F)c(OC)c(OC)cc3[nH]2)c1C | 177 to 179
Oc1c(CN2CCCC2)cc(Nc2ccc3ccccc3n2)cc1CN1CCCC1 | 64 to 66

Compound | melting point [°C]
O=C(NN1CCCCC1)C1=NN(c2ccc(Cl)cc2Cl)C(c2ccc(Cl)cc2)C1 (stereo not drawn) | 75 to 78
O=Cc1cc(S(=O)(=O)O)c2cccnc2c1O | 286 to 288
CNc1cc(N(C)S(=O)(=O)c2ccc(N)cc2)nc(NC)n1 | 79 to 80
CC(C)C[C@H](NC(=O)[C@H](Cc1ccccc1)NP(=O)(OCc1ccccc1)OCc1ccccc1)C(=O)O | 90 to 92
Cc1nnc2n1-c1ccc(N)cc1C(c1ccccc1F)=NC2(C)C | 294
O=C(NC1CC1c1ccccc1)C1Cc2ccccc2N1S(=O)(=O)c1ccc(-c2ccc(F)cc2)cc1 (stereo not drawn) | 80
Cc1ccccc1C(=O)N1CCc2nnc(NN)cc2C1 | 98 to 100
CCCc1c(C(=O)C(C)C)c2ccc(C(=O)O)cc2n1Cc1ccccc1[N+](=O)[O-] | 214 to 215
CC1(C)CCSc2cccc(O)c21 | 48
CC(=O)NCC1CC(c2ccc(-n3ccc(C#N)c3)c(F)c2)=NO1 (single isomer, unassigned; (-)) | 159 to 161
Nc1ccnc(CCl)n1 | 125 to 128
Nc1nc(Cl)c2ncn(C3CC(F)C(CO)O3)c2n1 (stereo not drawn) | 172
Fc1ccc([C@@H]2Cc3cnc(Nc4ccc(CCN5CCCCC5)cc4)nc3-c3ccccc32)cc1 | 185 to 188
CN1CCCC1=Cc1ccc(Br)cc1 | 83 to 84
CCCC(NS(C)(=O)=O)P(=O)(OCCCl)OCCCl (stereo not drawn) | 69 to 72
O=C(O)c1ccc([N+](=O)[O-])cc1-c1ccccc1 | 174 to 176
Nc1nc(N)nc(-c2ccc(NS(=O)(=O)c3ccc4ccccc4c3)cc2)n1 | 230 to 233
CN1CCN(C2=Nc3cc(Cl)ccc3Oc3cscc32)CC1 | 180 to 182
C=C(C)c1cn(C2OC(CO)C(O)C2O)c(=O)[nH]c1=O (stereo not drawn) | 212 to 215
Cc1c(C(=O)Nc2ccc(N3CCCC3)c(C#N)c2)cnn1-c1ccc(F)cc1 | 185
CC(=O)NC[C@H]1CN(c2ccc(N3CCC(Cc4nnn(C)n4)CC3)c(F)c2)C(=O)O1 | 136 to 138

Compound | melting point [°C]
O=S(=O)(Nc1cccnc1Nc1ccccc1)c1ccc(O)cc1 | 226 to 228
Cc1cccc(Nc2nc(-c3cc(-c4ccccc4)no3)cs2)n1 | 291 to 293
CCSc1ccc(CC(=O)NC(NC(=NC#N)Nc2cccc3ncccc23)C(C)(C)C)cc1 (stereo not drawn) | 189 to 190
c1cc(Cn2ncc3c(N4CCNCC4)ncnc32)ccn1 | 121
O=C(CC(c1ccccc1)c1ccccc1)Nc1ccccc1Cl | 181
Cc1c(C)c2c(c(C)c1NC(=O)CC(C)(C)C)C(=O)C(C)(C)O2 | 155 to 156
NC(=O)Cc1cc(Oc2ccc3c(ccn3C(=O)Nc3ccc(-c4cccnc4)c(C(F)(F)F)c3)c2)ncn1 | 171 to 172
Cc1nc(-c2nccs2)c2nc(-c3ccccc3)cc-2[nH]1 | 248 to 250
CC(CCC(F)(F)C(C)(C)O)C1CCC2C3CCC4=CC(=O)CCC4(C)C3CCC12C (stereo not drawn) | 177 to 178
Cc1nc2ccccc2n1C1CCNCC1 | 130 to 132
Cc1cccc(-c2nc3cccnn3c2-c2ccnc(NC3CCCC3)c2)c1 | 130 to 131
CN1CCN(C(=O)Oc2ccc(C[C@H](NC(=O)Nc3ccccc3S(=O)(=O)c3ccccc3)C(=O)O)cc2)CC1 | 160
CC(CCC(=O)NC(C)(C)CO)C1CCC2C3C(=O)CC4CC(O)CCC4(C)C3CCC12C (stereo not drawn) | 220 to 222
CCc1nc2cc(C(=O)NC)c(Cl)cc2n1-c1ccc(CCNC(=O)NS(=O)(=O)c2ccc(C)cc2)cc1 | 122 to 135
COC(=O)c1cn2c(n1)COc1cc(C)c(Cl)cc1-2 | 242 to 246
O=C(Nc1cc(C(F)(F)F)cc2c(Cl)ccnc12)c1c(Cl)cccc1Cl | 150 to 157
COC(=O)Nc1cc(Oc2ccc3c(C(=O)Nc4ccc(CN5CCN(C)CC5)c(C(F)(F)F)c4)nccc3c2)ncn1 | 203 to 205
COc1cc(C=CN(C)C)c([N+](=O)[O-])cc1OC | 125 to 126
CCOC(=O)NS(=O)(=O)c1c(Cl)c(C)nn1C | 106 to 109
Cc1ccc(C2(C#N)C3CC4CC(C3)CC2C4)cc1 (stereo not drawn) | 99 to 100

Results, then the compound that gave them:

melting point [°C] | Compound
113 to 115 | O=C(Nc1ccccn1)c1cccc(-c2cccc(OCCc3ccc(Cl)cc3Cl)n2)c1
148 to 149 | COC1C=C(C)C(=O)CC(C)(C)C1OC(=O)c1ccc([N+](=O)[O-])cc1[N+](=O)[O-] (stereo not drawn)
50 to 51 | COc1ccc(CCc2ccncc2NC(=O)c2ccccc2)cc1OC1CCCC1
73 to 74 | CN1CCN(CC(O)COc2cccc3ccccc23)CC1 (stereo not drawn)
190 to 192 | COc1ccc2cc(NC(C)=O)c3ccc(C)cc3c2c1OC
80.9 to 81.6 | CCCCCCCC(=O)Nc1ccc([N+](=O)[O-])cc1
145 to 150 | O=C(C=CCN1CCN(C[C@H]2CCC(=O)O2)CC1)Nc1cc2c(Nc3ccc(F)c(Cl)c3)ncnc2cc1OCC1CC1
104 to 106 | CCCC=Cc1c(C(C)C)nc(C(C)C)c(C(=O)OCC)c1-c1ccc(-c2ccccc2)cc1
140 to 141 | Cn1cc(-c2cccc(N3Cc4cc(C5CC5)sc4C3=O)c2CO)cc(Nc2ccncn2)c1=O
204 | CCc1nc(C2CCCC2)n2nc(-c3ccc(OC)c(S(=O)(=O)N4CCOCC4)c3)[nH]c(=O)c12
195 | COc1ccc(-c2nn(C)c(=O)c3ccccc23)cc1Cl
179 to 180 | CS(=O)(=O)Nc1ccc(C=C2CCOC2=O)cc1Oc1ccc(F)cc1F
116 to 117 | CCC1(CCCCN2CCN(c3cccc(Cl)c3)CC2)C(=O)Nc2cc(F)ccc21 (stereo not drawn)
62 to 64 | O=S(=O)(Cc1ccccc1)N1CCC[C@H]1C(=S)OCCCc1ccccc1
134 to 135 | COc1cccc(CC(=O)O)c1OCCCc1cn(-c2ccc(C(F)(F)F)cn2)nc1-c1ccccc1
119 to 120 | OCCOc1cc2ccccc2cc1OCCOc1ccccc1
74 to 75 | O=C(O)Cc1cccc(F)c1OCCc1ccccc1
> 300 | CCOCCn1cc2c(C3C(=O)Nc4ccc(Cl)cc43)nc(NCC(C)O)nc2n1 (stereo not drawn)

melting point [°C] | Compound
93 to 94.5 | COc1cc(OC)nc(Sc2ccnc3cc(Cl)ccc23)n1
152 | CCOC(=O)c1cn(CC)c2nc(N3CCN(Cc4ccccc4)CC3)ncc2c1=O
147 to 150 | CC(C)(C)OC(=O)N1CCC(c2ccc(COc3ccc(-n4cncn4)cc3)nc2)CC1
87 to 88 | CCOC(=O)c1c2ccc(Cl)cc2c(-c2ccccc2)n1CCC(C)(C)CCBr
244 to 245 | COC(=O)c1ncn2c1CN(C)C(=O)c1sccc1-2
266 to 267 | COc1c(-c2cc3c(s2)CCCC3=O)ccc2c(=O)c(C(=O)O)cn(C3CC3)c12
250 to 254 | CNC(=O)C1CCNC(c2ccnc3ccccc23)C1 (stereo not drawn)
128 | CCN(CC)C(=O)CCc1c[nH]c2ccc(Br)cc12
107 to 108 | O=Cc1c(Cl)cc(Cl)cc1OCc1ccc(F)cc1
59 | CCOC1(c2nc3ccccc3s2)C=CC(=O)C=C1
179 to 181 | Cc1cc2nc(S(=O)Cc3ccccc3N)[nH]c2cc1C (stereo not drawn)
77 to 79 | COc1ccc(C2(C#N)C=C(C#N)CCC2)cc1OC1CCCC1 (stereo not drawn)
89 to 90 | CCOC(=O)C1=CC(CF)(CF)Oc2ccc(I)cc21
176 to 177 | CCCS(=O)(=O)c1cc([C@H]2CC[C@H](c3cc(OC)c(OC)c(OC)c3)O2)cc(OC)c1OCc1ccccc1 (relative stereo)
239 to 242 | NC(=O)c1cc2c(Sc3ccccn3)cncc2s1
> 300 | COc1ccc2c(c1)C(=O)C(C(=O)O)C(c1ccccc1)=N2 (stereo not drawn)
104 to 106 | CCCCCOc1ccc(C2SC(=O)NC2=O)cc1OCC (stereo not drawn)
74 to 75 | CCOc1ccc(C(c2ccc(C(C)(C)C)cc2)C(C)Cl)cc1 (stereo not drawn)

Source: a melting point compilation (Tetko et al.; mined from patent text by program, amines drawn as free bases though some values may be those of a salt)
